Where a SMILES comes first, the peptide text is derived from it.
Key:
Assay type in all cases: functional
[1] = tested on: Schistocerca gregaria; experiment: Tested for dose dependent release of inositol phosphate (InsP3) at 10 nM
[2] = tested on: Schistocerca gregaria; experiment: Tested for dose dependent release of inositol phosphate (InsP4) at 10 nM
[3] = tested on: Schistocerca gregaria; experiment: Tested for dose dependent release of inositol phosphate (InsP3) at 1 uM
[4] = tested on: Schistocerca gregaria; experiment: Tested for dose dependent release of inositol phosphate (InsP4) at 1 uM
[5] = tested on: Schistocerca gregaria; experiment: Tested for dose dependent release of inositol phosphate (InsP4) at 1 uM in the presence of compound 1 (0.5 uM)
[6] = tested on: Schistocerca gregaria; experiment: Tested for dose dependent release of inositol phosphate (InsP3) at 1 uM in the presence of compound 1 (0.5 uM)
[7] = tested on: Schistocerca gregaria; experiment: Tested for dose dependent release of inositol phosphate (InsP3) at 0.5 uM
[8] = tested on: Schistocerca gregaria; experiment: Tested for dose dependent release of inositol phosphate (InsP4) at 0.5 uM

Compound	Increase in DPM [1]	Increase in DPM [2]	Increase in DPM [3]	Increase in DPM [4]	Increase in DPM [5]	Increase in DPM [6]	Increase in DPM [7]	Increase in DPM [8]
CC(C)C[C@@H](NC(=O)[C@@](C)(Cc1ccc(O)cc1)NC(=O)[C@@H](N)CCCN=C(N)N)C(=O)N1CCC[C@@H]1C(=O)N[C@H](C(=O)O)[C@H](C)O	500 (mg of protein)-1	250 (mg of protein)-1	400 (mg of protein)-1	250 (mg of protein)-1	–	–	–	–
CC(C)C[C@@H]1NC(=O)[C@H](Cc2ccc(O)cc2)NC(=O)[C@H](CCCN=C(N)N)NC(=O)[C@H]([C@@H](C)O)NC(=O)[C@@H]2CCCN2C1=O (HELM PEPTIDE1{L.P.T.R.Y}$PEPTIDE1,PEPTIDE1,1:R1-5:R2$$$V2.0)	1200 (mg of protein)-1	750 (mg of protein)-1	500 (mg of protein)-1	300 (mg of protein)-1	–	–	–	–
CC(C)C[C@H](NC(=O)[C@H](Cc1ccc(O)cc1)N(C)C(=O)[C@@H](N)CCCN=C(N)N)C(=O)N1CCC[C@H]1C(=O)N[C@H](C(=O)O)[C@@H](C)O (HELM PEPTIDE1{R.[meY].L.P.T}$$$$V2.0)	–	–	–	–	1500 (mg of protein)-1	3600 (mg of protein)-1	–	–
H-RYLPT-OH	1250 (mg of protein)-1	1100 (mg of protein)-1	–	–	–	–	3400 (mg of protein)-1	1600 (mg of protein)-1

— ChEMBL document CHEMBL1128101, “Cycloproctolin and [-Methyl-l-Tyr]-proctolin are potent antagonists of proctolin-induced inositol phosphate production in locust foregut homogenates” (1995)
